Assay results reported in ChEMBL document CHEMBL1125946, “Total synthesis of a homochiral arene-fused prostacyclin analog” (Bioorg Med Chem Lett, 1991).

Species on record: Homo sapiens
Assay: Concentration required for the inhibition of collagen induced platelet aggregation; inactive
Format: functional

- IC50: > 10 µM
Compound: O=C(O)COc1ccc2c(c1)CC[C@@H]1[C@@H](C#C[C@@H](O)C3CCCCC3)[C@H](O)C[C@H]21
